Our source for the IC50 values is US20240150368A1, “ULK INHIBITORS AND METHODS OF USE THEREOF” (Deciphera Pharmaceuticals, LLC, priority 2022, published 2024).

The target of experiment [1] is T1, ULK2 kinase (Homo sapiens, UniProt Q8IYT8).
T1 construct: (residues 1-306 with N-terminal GST and His tag; ID NO: 2); purchased Signal Chem U02-11G
Briefly: Biochemical assay for ULK2 (coupled pyruvate kinase/lactate dehydrogenase assay). The settings on record: 1 mM ATP, 1 nM ULK2; read-out: ULK2 (inhibition of biochemical activity), IC50. The gist of the method:
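Continuous PK/LDH-coupled NADH oxidation assay (A340) with 1 nM ULK2, 200 μM ULKtide and 1 mM ATP in Tris pH 7.5, 15 mM MgCl2, 1% DMSO, read 6 h at 30° C. Rates from the 2-3 h window converted to percent inhibition against no-compound and known-inhibitor controls; IC50 by four-parameter sigmoidal fit.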

The subject of experiment [2] is ULK kinase substrate ATG13 (pS318-ATG13) in A549 (KRAS mutant) cells. In words: pATG13 levels of mutant KRas A549 cells after treatment with ULK inhibitors in combination with trametinib (ELISA). The experiment is classed as cell-based, human. The method, boiled down: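 A549 cells grown overnight were treated with a test-compound dose response plus trametinib at 250 nM final (or DMSO) overnight at 37° C. Lysates were assayed by total-ATG13 capture and biotinylated pS318-ATG13 detection ELISA (450 nm minus 540 nm background); % phosphorylation versus controls gave IC50 values.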

For experiment [3], the target named is T2, ULK1 kinase (Homo sapiens, UniProt O75385, E37A/K38A).
T2 construct: (residues 1-283; ID NO: 1); purchased Beryllium
T2 sequence (O75385 1-283 E37A/K38A): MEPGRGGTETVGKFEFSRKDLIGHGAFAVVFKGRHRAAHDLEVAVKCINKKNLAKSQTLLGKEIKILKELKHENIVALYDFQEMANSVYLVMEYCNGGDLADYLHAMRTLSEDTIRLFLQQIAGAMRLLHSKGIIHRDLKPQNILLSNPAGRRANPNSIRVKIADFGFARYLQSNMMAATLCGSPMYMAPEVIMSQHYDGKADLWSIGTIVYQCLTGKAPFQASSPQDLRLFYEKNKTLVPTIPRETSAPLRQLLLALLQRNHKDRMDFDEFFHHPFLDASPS
Briefly: Biochemical assay for ULK1 (coupled pyruvate kinase/lactate dehydrogenase assay). The settings on record: 1 mM ATP, 0.1 nM ULK1; read-out: ULK1 (inhibition of biochemical activity), IC50. The method, boiled down:
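IC50 values were fitted to percent inhibition, normalised with no-compound and known-inhibitor controls, using rates from 2–3 h of a 6 h read at 30 °C. ADP was coupled through pyruvate kinase/lactate dehydrogenase to NADH loss at 340 nm.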

T1 sequence (Q8IYT8 with tags, fused parts or gaps): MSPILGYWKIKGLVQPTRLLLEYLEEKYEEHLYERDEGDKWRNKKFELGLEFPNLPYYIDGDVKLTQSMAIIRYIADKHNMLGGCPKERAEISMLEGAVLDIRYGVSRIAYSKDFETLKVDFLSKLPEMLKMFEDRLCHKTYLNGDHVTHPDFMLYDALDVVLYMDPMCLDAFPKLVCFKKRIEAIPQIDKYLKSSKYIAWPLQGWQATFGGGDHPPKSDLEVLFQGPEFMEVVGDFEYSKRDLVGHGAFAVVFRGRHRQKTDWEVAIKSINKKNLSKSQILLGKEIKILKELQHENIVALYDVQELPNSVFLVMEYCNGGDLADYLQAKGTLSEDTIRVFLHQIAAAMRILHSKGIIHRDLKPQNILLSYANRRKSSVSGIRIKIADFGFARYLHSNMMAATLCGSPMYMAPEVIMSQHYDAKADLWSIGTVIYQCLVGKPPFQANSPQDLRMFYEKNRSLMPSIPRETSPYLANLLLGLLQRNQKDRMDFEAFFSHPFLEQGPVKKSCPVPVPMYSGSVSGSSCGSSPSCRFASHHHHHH

As to `CC/C(Nc1cnn(C2CCN(C(C)C)CC2)c1)=C1/C(=O)Nc2ccc(C(=O)NC[C@H]3CCCO3)cc21` [Example 1, (R,Z)-3-(1-((1-(1-isopropylpiperidin-4-yl)-1H-pyrazol-4-yl)amino)propylidene)-2-oxo-N-((tetrahydrofuran-2-yl)methyl)indoline-5-carboxamide], the 50% inhibitory concentration (IC50) – broadly, the concentration needed to halve the response being measured – in experiment [1] is 10 to 100 nM; in experiment [2], 100 to 300 nM; in experiment [3], at most 10 nM.

Consider `CC/C(Nc1ccc(N2C[C@H]3CN(C)C[C@H]3C2)cc1)=C1/C(=O)Nc2ccc(C(=O)NCC(C)C)cc21` [Example 63], for which the half-inhibitory concentration (IC50) was 10 to 100 nM in experiment [1], at most 100 nM in experiment [2] and 10 to 100 nM in experiment [3].

In the case of `CC/C(Nc1ccc(N2C[C@H]3CN(C)C[C@H]3C2)cc1)=C1/C(=O)Nc2ccc(C(=O)NC[C@H]3CCCO3)cc21` [Example 64], the IC50 in experiment [1] is 10 to 100 nM; in experiment [2], at most 100 nM; in experiment [3], 10 to 100 nM.

For the compound `CC/C(Nc1ccc(N2CC3(CN(C)C3)C2)cc1)=C1/C(=O)Nc2ccc(C(=O)NCC(C)C)cc21` [Example 65], the IC50 was 10 to 100 nM in experiment [1], at most 100 nM in experiment [2] and at most 10 nM in experiment [3].

Regarding `CC/C(Nc1ccc(N2CC3(CN(C)C3)C2)cc1)=C1/C(=O)Nc2ccc(C(=O)NC[C@H]3CCCO3)cc21` [Example 66], the IC50 in experiment [1] is 10 to 100 nM; in experiment [2], at most 100 nM; in experiment [3], at most 10 nM.

For the compound `CC/C(Nc1ccc(N2CC3CC(C2)N3C)cc1)=C1/C(=O)Nc2ccc(C(=O)NCC(C)C)cc21` [Example 67], the figures for the concentration for half-maximal inhibition (IC50) in experiment [1], in experiment [2] and in experiment [3] were 10 to 100 nM, at most 100 nM and at most 10 nM, respectively.

Take `CC/C(Nc1ccc(N2CC3CC(C2)N3C)cc1)=C1/C(=O)Nc2ccc(C(=O)NC[C@H]3CCCO3)cc21` [Example 68]: the IC50 in experiment [1] is 10 to 100 nM; in experiment [2], at most 100 nM; in experiment [3] it was at most 10 nM.

Consider `CC/C(Nc1ccc(N2CC3CC2CN3C)cc1)=C1/C(=O)Nc2ccc(C(=O)NCC(C)C)cc21` (stereo not drawn) [Example 69], for which the IC50 in experiment [1] was 10 to 100 nM; in experiment [2], at most 100 nM; in experiment [3], at most 10 nM.

For `CC/C(Nc1ccc(N2CC3CC2CN3C)cc1)=C1/C(=O)Nc2ccc(C(=O)NC[C@H]3CCCO3)cc21` (stereo partly drawn) [Example 70], the half-maximal inhibitory concentration (IC50) was 10 to 100 nM in experiment [1], at most 100 nM in experiment [2] and at most 10 nM in experiment [3].

As for `CC/C(Nc1ccc(N2CC3CC2CN3C)cc1)=C1/C(=O)Nc2ccc(C(=O)NCC(F)(F)F)cc21` (stereo not drawn) [Example 71], the figures for the half-maximal inhibitory concentration (IC50) in experiment [1], in experiment [2] and in experiment [3] were 10 to 100 nM, at most 100 nM and at most 10 nM, respectively.

For `CC/C(Nc1ccc(N2CCN(C)CC2)nc1)=C1/C(=O)Nc2ccc(C(=O)NCC(F)(F)F)cc21` [Example 74], the IC50 in experiment [1] lay within 100 to 500 nM; in experiment [2], 100 to 300 nM; in experiment [3] it was 10 to 100 nM.

On to `CC/C(Nc1ccc(N2CCN(C)CC2)cn1)=C1/C(=O)Nc2ccc(C(=O)NCC(F)(F)F)cc21` [Example 75], for which the 50% inhibitory concentration (IC50) was at most 10 nM in experiment [1], 100 to 300 nM in experiment [2] and at most 10 nM in experiment [3].

Regarding `CC/C(Nc1cnn(C)c1)=C1/C(=O)Nc2ccc(C(=O)NCC(F)(F)F)cc21` [Example 77], the IC50 in experiment [1] is 10 to 100 nM; in experiment [2] it was 100 to 300 nM; in experiment [3], at most 10 nM.

As for `CC/C(Nc1ccc(-c2nc(C)no2)cc1)=C1/C(=O)Nc2ccc(C(=O)NCC(F)(F)F)cc21` [Example 78], the IC50 in experiment [1] is 10 to 100 nM; in experiment [2], 300 to 600 nM; in experiment [3], 10 to 100 nM.

In the case of `CC/C(Nc1ccc(-c2cn(C)nn2)cc1)=C1/C(=O)Nc2ccc(C(=O)NCC(F)(F)F)cc21` [Example 79], the results for the half-maximal inhibitory concentration (IC50) in experiment [1], in experiment [2] and in experiment [3] were 10 to 100 nM, 300 to 600 nM and 10 to 100 nM, respectively.

For the compound `CC/C(Nc1cnn(C2CCN(C(C)C)CC2)c1)=C1/C(=O)Nc2ccc(C(=O)NC[C@H]3CC(F)(F)CO3)cc21` [Example 80], the IC50 was at most 10 nM in experiment [1], at most 100 nM in experiment [2] and at most 10 nM in experiment [3].

Take `CC/C(Nc1cnn(C2CCN(C(C)C)CC2)c1)=C1/C(=O)Nc2ccc(C(=O)NCCOC(F)(F)F)cc21` [Example 82]: the results for the IC50 in experiment [1], in experiment [2] and in experiment [3] were at most 10 nM, 300 to 600 nM and at most 10 nM, respectively.

As to `CC/C(Nc1cnn(C2CCN(C(C)C)CC2)c1)=C1/C(=O)Nc2ccc(C(=O)NC[C@H]3CCCCO3)cc21` [Example 83], the half-inhibitory concentration (IC50) was 10 to 100 nM in experiment [1], at most 100 nM in experiment [2] and at most 10 nM in experiment [3].

As for `CC/C(Nc1cnn(C2CC3(C2)CN(C)C3)c1)=C1/C(=O)Nc2ccc(C(=O)NCC(F)(F)F)cc21` [Example 84], the IC50 in experiment [1] was at most 10 nM; in experiment [2] it was above 600 nM; in experiment [3], at most 10 nM.

As to `CC/C(Nc1ccc(N2CC3(COC3)C2)cc1)=C1/C(=O)Nc2ccc(C(=O)NCC(F)(F)F)cc21` [Example 85], the IC50 in experiment [1] fell in the range of 10 to 100 nM; in experiment [2], 300 to 600 nM; in experiment [3] it was 10 to 100 nM.

For `CC/C(Nc1cnn(C2CN(C)C2)c1)=C1/C(=O)Nc2ccc(C(=O)NCC(F)(F)F)cc21` [Example 86], the IC50 was 10 to 100 nM in experiment [1], 300 to 600 nM in experiment [2] and at most 10 nM in experiment [3].

Regarding `CC/C(Nc1cnn(C2CN(C)C2)c1)=C1/C(=O)Nc2ccc(C(=O)NCC(C)C)cc21` [Example 87], the IC50 in experiment [1] was 10 to 100 nM; in experiment [2], 300 to 600 nM; in experiment [3], 10 to 100 nM.

For the compound `CC/C(Nc1cnn(C2CN(C3CCC3)C2)c1)=C1/C(=O)Nc2ccc(C(=O)NC[C@H]3CCCO3)cc21` [Example 88], the IC50 was 10 to 100 nM in experiment [1], 100 to 300 nM in experiment [2] and at most 10 nM in experiment [3].

Take `CC/C(Nc1cnn(C2CN(C)C2)c1)=C1/C(=O)Nc2ccc(C(=O)NCCOC)cc21` [Example 89]: the values for the IC50 in experiment [1], in experiment [2] and in experiment [3] were 100 to 500 nM, above 600 nM and 10 to 100 nM, respectively.

Turning to `CC/C(Nc1cnn(C2CN(CC)C2)c1)=C1/C(=O)Nc2ccc(C(=O)NC[C@H]3CCCO3)cc21` [Example 90], the 50% inhibitory concentration (IC50) in experiment [1] is 10 to 100 nM; in experiment [2], 300 to 600 nM; in experiment [3], at most 10 nM.

Turning to `CC/C(Nc1cnn(C2CN(C(C)C)C2)c1)=C1/C(=O)Nc2ccc(C(=O)NC[C@H]3CCCO3)cc21` [Example 91], the half-inhibitory concentration (IC50) in experiment [1] is 10 to 100 nM; in experiment [2] it was 100 to 300 nM; in experiment [3], at most 10 nM.

Take `CC/C(Nc1ccc(N2CCN(C(C)C)CC2)cn1)=C1/C(=O)Nc2cc(F)c(C(=O)NCC(F)(F)F)cc21` [Example 92]: the IC50 in experiment [1] was 100 to 500 nM; in experiment [2] it was at most 100 nM; in experiment [3] it was 100 to 500 nM.
